{
  "source": "patent US4115065A",
  "about": "“Saturation analysis of folate compound with selenium-75 labeled folate” (The Radiochemical Centre Limited, priority 1973, dated 1978)",
  "key": {"β-lactoglobulin [1]": {"biological_target": "T1, β-lactoglobulin (Bos taurus, UniProt P02702)", "assay": "Example 4: saturation assay for folates, Se75 pteroyl-L-methylselenocysteine label, N5-methyltetrahydrofolate standards", "type": "binding", "details": "0.5 ng label, β-lactoglobulin 100 μg", "protocol": "(§1) Standard solutions of N^5 -methyltetrahydrofoate containing 0, 0.25, 0.5, 1, 2 and 4 ng in phosphate-albumin buffer (200 μl) were pipetted in assay tubes. Buffer was also added to `total` and `blank` tubes (400 and 300 μl respectively). To each tube was added pteroyl-L-methylselenocysteine-Se75 (0.5 ng, sp. act. ca 0.24 Ci/m.mole) in 100 μl of buffer. Immediately afterwards β-lactoglobulin (100 μg) in 100 μl of buffer was added to all tubes except the blanks. After 60 minutes incubation at room temperature, a suspension of albumin-coated charcoal in buffer (200 μl) was added at 4° C. to all tubes except the totals. The tubes were centrifuged (2000g for 10 minutes) and the supernate was counted for 300 seconds in an NE8312 beta-gamma counter.\n(§2) Results are expressed in terms of [formula]"}, "β-lactoglobulin [2]": {"biological_target": "T1, β-lactoglobulin", "assay": "Example 5: saturation assay, Se75 pteroyl-L-methylselenocysteine label, folic acid standards", "type": "binding", "details": "0.5 ng label, β-lactoglobulin 100 μg", "protocol": "as §1, §2\nThe protocol of example 4 was used except that folic acid was used as the standard instead of N^5 -methyltetrhydrofolate"}, "[3]": {"system": "porcine serum as binding protein", "assay": "Example 8: saturation assay, Se75 pteroyl-L-methylselenocysteine label, N5-methyltetrahydrofolate standards, porcine serum binder", "details": "0.5 ng label, porcine serum 30 μl", "protocol": "as §1, §2\n(§3) The protocol of example 4 was used except that a solution (100 μl) containing 30 μl of porcine serum and 70 μl of buffer was used instead of β-lactoglobulin as binding protein."}, "[4]": {"system": "porcine serum as binding protein", "assay": "Example 9: saturation assay, Se75 pteroyl-L-methylselenocysteine label, folic acid standards, porcine serum binder", "details": "0.5 ng label, porcine serum 30 μl", "protocol": "as §1, §2, §3\nThe protocol of example 8 was used except that folic acid was substituted for N^5 -methyltetrahydrofolate as standard"}, "[5]": {"system": "rabbit anti folic acid antiserum", "assay": "Example 12: radioimmunoassay for folic acid, Se75 pteroyl-L-methylselenocysteine label", "type": "binding", "details": "0.5 ng label, 2 μl rabbit anti folic acid antiserum", "protocol": "(§4) Standard solutions of folic acid containing 0, 0.25, 0.5, 1, 2 and 4 ng in phosphate-albumin buffer (200 μl) were pipetted into assay tubes. Buffer was also added to `total` and `blank` tubes (400 and 300 μl respectively). To each tube was added Se75-pteroyl-L-methylselenocysteine (0.5 ng, sp. act. ca 0.24 Ci/m.mole) in 100 μl of buffer. Immediately afterwards was added, to all tubes except the blanks, 100 μl of buffer containing 2 μl of a 1/15000 titre rabbit anti folic acid antiserum, raised against a conjugate of folic acid with serum albumin.\n(§5) After 60 minutes incubation at room temperature, a suspension of albumin-coated charcoal in buffer (200 μl) was added at 4° C. to all tubes except the totals. The tubes were centrifuged (2000g for 10 minutes) and the supernate was counted for 300 seconds."}, "β-lactoglobulin [6]": {"biological_target": "T1, β-lactoglobulin", "assay": "Example 6: saturation assay, Se75 pteroyl-L-selenomethionine label, N5-methyltetrahydrofolate standards", "type": "binding", "details": "0.5 ng label", "protocol": "as §1, §2\n(§6) The protocol of example 4 was used except that Se75-pteroyl-L-selenomethionine (0.5ng, sp. act. ca 2.25 Ci/m.mole) was substituted as label for Se75-pteroyl-L-methylselenocysteine."}, "[7]": {"system": "porcine serum as binding protein", "assay": "Example 7: saturation assay, Se75 pteroyl-L-selenomethionine label, N5-methyltetrahydrofolate standards, porcine serum binder", "details": "0.5 ng label, porcine serum 30 μl", "protocol": "as §1, §2, §6\nThe protocol of example 6 was used except that a solution of porcine serum (30 μl) in buffer (70 μl) was substituted for β-lactoglobulin as binding protein."}, "[8]": {"system": "porcine serum as binding protein", "assay": "Example 11: saturation assay, Se75 pteroyl-L-selenomethionine label, folic acid standards, porcine serum binder", "details": "0.5 ng label, porcine serum 30 μl", "protocol": "as §1, §2, §6\nThe protocol of example 6 was used except that folic acid was substituted for N^5 -methyltetrahydrofolate as standard.\nThe protocol of example 10 was used except that a solution containing 30 μl of porcine serum and 70 μl of buffer was substituted for β-lactoglobulin as binding protein."}, "[9]": {"system": "rabbit anti folic acid antiserum", "assay": "Example 13: radioimmunoassay for folic acid, Se75 pteroyl-L-selenomethionine label", "type": "binding", "details": "0.5 ng label", "protocol": "as §4, §5\nThe protocol of example 12 was used except that Se75-pteroyl-L-selenomethionine (0.5ng, sp. act. ca 2.25 Ci/m.mole) was substituted for Se-75-pteroyl-L-methylselenocysteine as label"}, "[10]": {"details": "0.25 ng N5 methyltetrahydrofolate"}, "[11]": {"details": "0.5 ng N5 methyltetrahydrofolate"}},
  "note": "Several values for one entry are separate records, joined by “and”; a condition that tells them apart may be missing. Equal entries are not always repeated.",
  "data": [
    {"smiles": "C[75Se]C[C@H](NC(=O)c1ccc(NCc2cnc3nc(N)[nH]c(=O)c3n2)cc1)C(=O)O", "note": "[pteroyl-L-methylselenocysteine-Se75, N-Pteroyl-Se-methyl-L-selenocysteine-Se75]", "values": [
      {"measurement": "percentage of labelled folate bound", "setting": "β-lactoglobulin [1]; 0 ng N5 methyltetrahydrofolate, 60 minutes room temperature", "result": 94, "unit": "%"},
      {"measurement": "percentage of labelled folate bound", "setting": "β-lactoglobulin [1]; [10]", "result": "81.8% and 78.0%"},
      {"measurement": "percentage of labelled folate bound", "setting": "β-lactoglobulin [1]; [11]", "result": 81.4, "unit": "%"},
      {"measurement": "percentage of labelled folate bound", "setting": "β-lactoglobulin [1]; 1 ng N5 methyltetrahydrofolate", "result": "78.3% and 78.6%"},
      {"measurement": "percentage of labelled folate bound", "setting": "β-lactoglobulin [1]; 2 ng N5 methyltetrahydrofolate", "result": "51.3% and 58.0%"},
      {"measurement": "percentage of labelled folate bound", "setting": "β-lactoglobulin [1]; 4 ng N5 methyltetrahydrofolate", "result": "44.4% and 34.1%"},
      {"measurement": "percentage of labelled folate bound", "setting": "β-lactoglobulin [2]; 0 ng folic acid", "result": 95.5, "unit": "%"},
      {"measurement": "percentage of labelled folate bound", "setting": "β-lactoglobulin [2]; 0.25 ng folic acid", "result": "86.1% and 85.6%"},
      {"measurement": "percentage of labelled folate bound", "setting": "β-lactoglobulin [2]; 0.5 ng folic acid", "result": "67.7% and 82.5%"},
      {"measurement": "percentage of labelled folate bound", "setting": "β-lactoglobulin [2]; 1 ng folic acid", "result": "45.5% and 41.4%"},
      {"measurement": "percentage of labelled folate bound", "setting": "β-lactoglobulin [2]; 2 ng folic acid", "result": "28.1% and 32.6%"},
      {"measurement": "percentage of labelled folate bound", "setting": "β-lactoglobulin [2]; 4 ng folic acid", "result": 10.4, "unit": "%"},
      {"measurement": "Percent of labelled folate bound", "setting": "[3]; 0 ng N5 methyltetrahydrofolate", "result": 89.3, "unit": "%"},
      {"measurement": "Percent of labelled folate bound", "setting": "[3]; [10]", "result": "61.4% and 52.0%"},
      {"measurement": "Percent of labelled folate bound", "setting": "[3]; [11]", "result": "43.3% and 48.1%"},
      {"measurement": "Percent of labelled folate bound", "setting": "[3]; 1 ng N5 methyltetrahydrofolate", "result": "41.2% and 38.9%"},
      {"measurement": "Percent of labelled folate bound", "setting": "[3]; 2 ng N5 methyltetrahydrofolate", "result": "40.9% and 39.3%"},
      {"measurement": "Percent of labelled folate bound", "setting": "[3]; 4 ng N5 methyltetrahydrofolate", "result": "34.5% and 31.0%"},
      {"measurement": "Percent of labelled folic acid bound to porcine serum", "setting": "[4]; 0 ng folic acid", "result": 92.7, "unit": "%"},
      {"measurement": "Percent of labelled folic acid bound to porcine serum", "setting": "[4]; 0.25 ng folic acid", "result": "67.1% and 68.7%"},
      {"measurement": "Percent of labelled folic acid bound to porcine serum", "setting": "[4]; 0.5 ng folic acid", "result": "60.9% and 43%"},
      {"measurement": "Percent of labelled folic acid bound to porcine serum", "setting": "[4]; 1 ng folic acid", "result": "26.2% and 31.3%"},
      {"measurement": "Percent of labelled folic acid bound to porcine serum", "setting": "[4]; 2 ng folic acid", "result": "28.0% and 28.3%"},
      {"measurement": "Percent of labelled folic acid bound to porcine serum", "setting": "[4]; 4 ng folic acid", "result": "9% and 2.6%"},
      {"measurement": "Percent of labelled folate bound to antiserum", "setting": "[5]; 0 ng folic acid", "result": 97.6, "unit": "%"},
      {"measurement": "Percent of labelled folate bound to antiserum", "setting": "[5]; 0.25 ng folic acid, listed as Se75-pteroyl-L-methylselenocysteine", "result": "72.4% and 90.9%"},
      {"measurement": "Percent of labelled folate bound to antiserum", "setting": "[5]; 0.5 ng folic acid, listed as Se75-pteroyl-L-methylselenocysteine", "result": "52.5% and 70.3%"},
      {"measurement": "Percent of labelled folate bound to antiserum", "setting": "[5]; 1 ng folic acid, listed as Se75-pteroyl-L-methylselenocysteine", "result": "50.1% and 35.3%"},
      {"measurement": "Percent of labelled folate bound to antiserum", "setting": "[5]; 2 ng folic acid, listed as Se75-pteroyl-L-methylselenocysteine", "result": "20.1% and 29.6%"},
      {"measurement": "Percent of labelled folate bound to antiserum", "setting": "[5]; 4 ng folic acid, listed as Se75-pteroyl-L-methylselenocysteine", "result": "20.1% and 12.8%"}
    ]},
    {"smiles": "C[75Se]CC[C@H](NC(=O)c1ccc(NCc2cnc3nc(N)[nH]c(=O)c3n2)cc1)C(=O)O", "note": "[Se75-pteroyl-L-selenomethionine, N-Pteroyl-L-selenomethionine-Se75]", "values": [
      {"measurement": "Percent of labelled folate bound", "setting": "β-lactoglobulin [6]; 0 ng N5 methyltetrahydrofolate", "result": 49.9, "unit": "%"},
      {"measurement": "Percent of labelled folate bound", "setting": "β-lactoglobulin [6]; [10]", "result": "39.3% and 36.1%"},
      {"measurement": "Percent of labelled folate bound", "setting": "β-lactoglobulin [6]; [11]", "result": "35.9% and 37.3%"},
      {"measurement": "Percent of labelled folate bound", "setting": "β-lactoglobulin [6]; 1 ng N5 methyltetrahydrofolate", "result": "32.6% and 33.0%"},
      {"measurement": "Percent of labelled folate bound", "setting": "β-lactoglobulin [6]; 2 ng N5 methyltetrahydrofolate", "result": 25.9, "unit": "%"},
      {"measurement": "Percent of labelled folate bound", "setting": "β-lactoglobulin [6]; 4 ng N5 methyltetrahydrofolate", "result": "25.4% and 24.1%"},
      {"measurement": "Percent of labelled folate bound", "setting": "[7]; 0 mg N5 methyltetrahydrofolate", "result": 36.4, "unit": "%"},
      {"measurement": "Percent of labelled folate bound", "setting": "[7]; 4 ng N5 methyltetrahydrofolate", "result": "15.5% and 15.6%"},
      {"measurement": "Percent of labelled folate bound", "setting": "[7]; 0.25 mg N5 methyltetrahydrofolate", "result": 21.3, "unit": "%"},
      {"measurement": "Percent of labelled folate bound", "setting": "[7]; 0.5 mg N5 methyltetrahydrofolate", "result": "17.2% and 17.1%"},
      {"measurement": "Percent of labelled folate bound", "setting": "[7]; 1 mg N5 methyltetrahydrofolate", "result": "20.7% and 18.5%"},
      {"measurement": "Percent of labelled folate bound", "setting": "[7]; 2 mg N5 methyltetrahydrofolate", "result": "19.3% and 17.2%"},
      {"measurement": "Percent of labelled folate bound", "setting": "[8]; 0 ng folic acid", "result": 35.7, "unit": "%"},
      {"measurement": "Percent of labelled folate bound", "setting": "[8]; 0.25 ng folic acid", "result": "20.3% and 21.1%"},
      {"measurement": "Percent of labelled folate bound", "setting": "[8]; 0.5 ng folic acid", "result": "18.4% and 20.9%"},
      {"measurement": "Percent of labelled folate bound", "setting": "[8]; 1 ng folic acid", "result": "16.8% and 17.3%"},
      {"measurement": "Percent of labelled folate bound", "setting": "[8]; 2 ng folic acid", "result": "13.0% and 13.9%"},
      {"measurement": "Percent of labelled folate bound", "setting": "[8]; 4 ng folic acid", "result": "12.6% and 15.2%"},
      {"measurement": "Percent of labelled folate bound", "setting": "[9]; 0 ng folic acid", "result": 42.2, "unit": "%"},
      {"measurement": "Percent of labelled folate bound", "setting": "[9]; 0.25 ng folic acid", "result": "25.7% and 27.6%"},
      {"measurement": "Percent of labelled folate bound", "setting": "[9]; 0.5 ng folic acid", "result": "22.1% and 19%"},
      {"measurement": "Percent of labelled folate bound", "setting": "[9]; 1 ng folic acid", "result": "20.8% and 21.9%"},
      {"measurement": "Percent of labelled folate bound", "setting": "[9]; 2 ng folic acid", "result": "16.7% and 15.5%"},
      {"measurement": "Percent of labelled folate bound", "setting": "[9]; 4 ng folic acid", "result": "16% and 13.7%"}
    ]}
  ]
}
